# According to patent US6645283B1, “Anthrapyridone compounds, water-based magenta ink composition, and method of ink-jet printing” (Nippon Kayaku Kabushiki Kaisha, priority 1998, dated 2003):
# Assay: Solubility in water of the dyestuff
# Assay type: physicochemical
# Conditions: not given
# Description: (5) The wet cake obtained in above (4)was added in 1500 parts of methanol, followed by heating at 60-65° C. and stirring for 1 hr. The crystal was filtered to separate, washed with methanol and dried to obtain 42.0 parts of the compound of No.2 as a red crystal. λmax:523 nm (in water, the ammonium salt); solubility in water:100 g/l or above.
# (2) The wet cake obtained in this (1) was desalted as in Example 1(5) to obtain 35.0 parts of the compound of No.5 as a red crystal. λmax:522 nm (in water, the ammonium salt); solubility in water:100 g/l or more.
# (2) To the reaction solution of the above (1) was added 4.7 parts of the compound of Formula (5) (R1=CH3, R2=H) obtained as in Example 1 (1) and 1(2), followed by raising the temperature and dropping 10% aqueous sodium hydroxide at 60-65° C. to maintain the pH at 4-5 for 1 hr for the reaction. The solution was maintained for 1 hr at pH 6.5-7.0, and filtered to remove a little insoluble matter, to obtain the reaction solution containing the compound of No.15. The reaction solution was diluted with water to obtain 250 parts of the diluted solution, followed by heating at 60-65° C., adding 50 parts of sodium chloride and stirring for about 30 min to deposit crystal. After stirring for 1 hr, the crystal was filtered to separate, washed with 100 parts of 10% aqueous sodium chloride, and dried to obtain 8.9 parts of the sodium salt of the compound of No.15 as a red crystal. λmax:527 nm (in water); solubility in water:100 g/l or more.
# The anthrapyridone dyestuff of the present invention is suitable for an ink-jet magenta dyestuff because it has values in hue and brightness close to those of the JNC standard magenta. The dyestuff of the present invention also, when used on a special paper, can provide good light fastness and water fastness. […] Further, the dyestuffs of No.2, No.5 and No.15 obtained in Example 1 to 3 have their water-solubilities of 100 g/l or more under an alkaline condition (pH 8-9) and therefore enable to prepare stable inks for ink-jetting. […]
row,SMILES,solubility in water [g/L]
1,Cn1c(=O)cc2c3c(c(Nc4cc(Nc5nc(NCC(=O)O)nc(Nc6cc(C(=O)O)cc(C(=O)O)c6)n5)ccc4S(=O)(=O)O)ccc31)C(=O)c1ccccc1-2 [No.5],≥ 100
2,Cn1c(=O)cc2c3c(c(Nc4cc(Nc5nc(Cl)nc(Nc6cc7c(S(=O)(=O)O)cc(S(=O)(=O)O)cc7cc6S(=O)(=O)O)n5)ccc4S(=O)(=O)O)ccc31)C(=O)c1ccccc1-2 [No.15],≥ 100

# Assay: Light fastness test of recorded image, carbon arc fade meter, 20 hours
# Assay type: physicochemical
# Conditions: Glossy Film (GF); carbon arc 20 hours
# From the text: (§1) Each water-based ink composition was produced by preparing the liquids which contain the anthrapyridone compounds (dyestuff components) of No.2, No.5 and No.15 respectively and have a composition of Table 2 as shown below, and then filtering through 0.45 μm membrane filter.
# (§2) By using an ink-jet printer (Trade name: PICTY80L, made by NEC KK), ink-jet recordings were done on four types of recording sheets: a plain paper (Printer paper A4, TLB5A4S made by Canon KK), a special paper A (Color BJ Paper LC101 made by Canon KK), a special paper B (Coated paper for color image jetting, STX73A4 made by Sharp KK), and a glossy film (Special glossy film, MJA4SP6 made by Seiko-Epson KK).
# A carbon arc fade meter (by Suga Testing Machine Co.) was used to irradiate carbon arc on the recorded images for 20 hours. Grade was judged according to JIS L-0841 blue scale. A color difference (ΔE) between before and after the test was measured by the above color determination system.
row,SMILES,Light fastness (ΔE)
1,Cn1c(=O)cc2c3c(c(Nc4cc(Nc5nc(NCC(=O)O)nc(Nc6cc(C(=O)O)cc(C(=O)O)c6)n5)ccc4S(=O)(=O)O)ccc31)C(=O)c1ccccc1-2 [No.5],(10.6)
2,Cn1c(=O)cc2c3c(c(Nc4cc(Nc5nc(Cl)nc(Nc6cc7c(S(=O)(=O)O)cc(S(=O)(=O)O)cc7cc6S(=O)(=O)O)n5)ccc4S(=O)(=O)O)ccc31)C(=O)c1ccccc1-2 [No.15],(2.8)

# Same assay, conditions: Glossy Film (GF); carbon arc 20 hours; JIS L-0841 blue scale
row,SMILES,Light fastness Grade
1,Cn1c(=O)cc2c3c(c(Nc4cc(Nc5nc(NCC(=O)O)nc(Nc6cc(C(=O)O)cc(C(=O)O)c6)n5)ccc4S(=O)(=O)O)ccc31)C(=O)c1ccccc1-2 [No.5],3-4
2,Cn1c(=O)cc2c3c(c(Nc4cc(Nc5nc(Cl)nc(Nc6cc7c(S(=O)(=O)O)cc(S(=O)(=O)O)cc7cc6S(=O)(=O)O)n5)ccc4S(=O)(=O)O)ccc31)C(=O)c1ccccc1-2 [No.15],4

# Same assay, conditions: Plain Paper (PP); carbon arc 20 hours; JIS L-0841 blue scale
row,SMILES,Light fastness Grade
1,Cn1c(=O)cc2c3c(c(Nc4cc(Nc5nc(NCC(=O)O)nc(Nc6cc(C(=O)O)cc(C(=O)O)c6)n5)ccc4S(=O)(=O)O)ccc31)C(=O)c1ccccc1-2 [No.5],3-4
2,Cn1c(=O)cc2c3c(c(Nc4cc(Nc5nc(Cl)nc(Nc6cc7c(S(=O)(=O)O)cc(S(=O)(=O)O)cc7cc6S(=O)(=O)O)n5)ccc4S(=O)(=O)O)ccc31)C(=O)c1ccccc1-2 [No.15],3-4

# Same assay, conditions: Plain Paper (PP); carbon arc 20 hours; color difference before/after
row,SMILES,Light fastness (ΔE)
1,Cn1c(=O)cc2c3c(c(Nc4cc(Nc5nc(NCC(=O)O)nc(Nc6cc(C(=O)O)cc(C(=O)O)c6)n5)ccc4S(=O)(=O)O)ccc31)C(=O)c1ccccc1-2 [No.5],(8.7)
2,Cn1c(=O)cc2c3c(c(Nc4cc(Nc5nc(Cl)nc(Nc6cc7c(S(=O)(=O)O)cc(S(=O)(=O)O)cc7cc6S(=O)(=O)O)n5)ccc4S(=O)(=O)O)ccc31)C(=O)c1ccccc1-2 [No.15],(8.0)

# Same assay, conditions: Special Paper A (SA); carbon arc 20 hours
row,SMILES,Light fastness (ΔE)
1,Cn1c(=O)cc2c3c(c(Nc4cc(Nc5nc(NCC(=O)O)nc(Nc6cc(C(=O)O)cc(C(=O)O)c6)n5)ccc4S(=O)(=O)O)ccc31)C(=O)c1ccccc1-2 [No.5],(14.1)
2,Cn1c(=O)cc2c3c(c(Nc4cc(Nc5nc(Cl)nc(Nc6cc7c(S(=O)(=O)O)cc(S(=O)(=O)O)cc7cc6S(=O)(=O)O)n5)ccc4S(=O)(=O)O)ccc31)C(=O)c1ccccc1-2 [No.15],(21.3)

# Same assay, conditions: Special Paper A (SA); carbon arc 20 hours; JIS L-0841 blue scale
row,SMILES,Light fastness Grade
1,Cn1c(=O)cc2c3c(c(Nc4cc(Nc5nc(NCC(=O)O)nc(Nc6cc(C(=O)O)cc(C(=O)O)c6)n5)ccc4S(=O)(=O)O)ccc31)C(=O)c1ccccc1-2 [No.5],3
2,Cn1c(=O)cc2c3c(c(Nc4cc(Nc5nc(Cl)nc(Nc6cc7c(S(=O)(=O)O)cc(S(=O)(=O)O)cc7cc6S(=O)(=O)O)n5)ccc4S(=O)(=O)O)ccc31)C(=O)c1ccccc1-2 [No.15],2

# Same assay, conditions: Special Paper B (SB); carbon arc 20 hours
row,SMILES,Light fastness (ΔE)
1,Cn1c(=O)cc2c3c(c(Nc4cc(Nc5nc(NCC(=O)O)nc(Nc6cc(C(=O)O)cc(C(=O)O)c6)n5)ccc4S(=O)(=O)O)ccc31)C(=O)c1ccccc1-2 [No.5],(12.4)
2,Cn1c(=O)cc2c3c(c(Nc4cc(Nc5nc(Cl)nc(Nc6cc7c(S(=O)(=O)O)cc(S(=O)(=O)O)cc7cc6S(=O)(=O)O)n5)ccc4S(=O)(=O)O)ccc31)C(=O)c1ccccc1-2 [No.15],(8.9)

# Same assay, conditions: Special Paper B (SB); carbon arc 20 hours; JIS L-0841 blue scale
row,SMILES,Light fastness Grade
1,Cn1c(=O)cc2c3c(c(Nc4cc(Nc5nc(NCC(=O)O)nc(Nc6cc(C(=O)O)cc(C(=O)O)c6)n5)ccc4S(=O)(=O)O)ccc31)C(=O)c1ccccc1-2 [No.5],3
2,Cn1c(=O)cc2c3c(c(Nc4cc(Nc5nc(Cl)nc(Nc6cc7c(S(=O)(=O)O)cc(S(=O)(=O)O)cc7cc6S(=O)(=O)O)n5)ccc4S(=O)(=O)O)ccc31)C(=O)c1ccccc1-2 [No.15],3-4

# Assay: Water fastness test of recorded paper, dipped into water, stirred for 2 min, air-dried
# Assay type: physicochemical
# Conditions: Glossy Film (GF); water 2 min
# From the text: as §1, §2
# A recorded paper was dipped into water in a beaker, stirred for 2 min, and air-dried. The change between before and after the test was judged by the JIS color fading grey scale. Alternatively, a color difference (ΔE) between before and after the test was measured by the above color determination system.
row,SMILES,Water fastness (ΔE)
1,Cn1c(=O)cc2c3c(c(Nc4cc(Nc5nc(NCC(=O)O)nc(Nc6cc(C(=O)O)cc(C(=O)O)c6)n5)ccc4S(=O)(=O)O)ccc31)C(=O)c1ccccc1-2 [No.5],(4.6)
2,Cn1c(=O)cc2c3c(c(Nc4cc(Nc5nc(Cl)nc(Nc6cc7c(S(=O)(=O)O)cc(S(=O)(=O)O)cc7cc6S(=O)(=O)O)n5)ccc4S(=O)(=O)O)ccc31)C(=O)c1ccccc1-2 [No.15],(3.8)

# Same assay, conditions: Glossy Film (GF); water 2 min; JIS color fading grey scale
row,SMILES,Water fastness Grade
1,Cn1c(=O)cc2c3c(c(Nc4cc(Nc5nc(NCC(=O)O)nc(Nc6cc(C(=O)O)cc(C(=O)O)c6)n5)ccc4S(=O)(=O)O)ccc31)C(=O)c1ccccc1-2 [No.5],4
2,Cn1c(=O)cc2c3c(c(Nc4cc(Nc5nc(Cl)nc(Nc6cc7c(S(=O)(=O)O)cc(S(=O)(=O)O)cc7cc6S(=O)(=O)O)n5)ccc4S(=O)(=O)O)ccc31)C(=O)c1ccccc1-2 [No.15],4

# Same assay, conditions: Plain Paper (PP); water 2 min; JIS color fading grey scale
row,SMILES,Water fastness Grade
1,Cn1c(=O)cc2c3c(c(Nc4cc(Nc5nc(NCC(=O)O)nc(Nc6cc(C(=O)O)cc(C(=O)O)c6)n5)ccc4S(=O)(=O)O)ccc31)C(=O)c1ccccc1-2 [No.5],3-4
2,Cn1c(=O)cc2c3c(c(Nc4cc(Nc5nc(Cl)nc(Nc6cc7c(S(=O)(=O)O)cc(S(=O)(=O)O)cc7cc6S(=O)(=O)O)n5)ccc4S(=O)(=O)O)ccc31)C(=O)c1ccccc1-2 [No.15],1

# Same assay, conditions: Plain Paper (PP); water 2 min; color difference before/after
row,SMILES,Water fastness (ΔE)
1,Cn1c(=O)cc2c3c(c(Nc4cc(Nc5nc(NCC(=O)O)nc(Nc6cc(C(=O)O)cc(C(=O)O)c6)n5)ccc4S(=O)(=O)O)ccc31)C(=O)c1ccccc1-2 [No.5],(6.3)
2,Cn1c(=O)cc2c3c(c(Nc4cc(Nc5nc(Cl)nc(Nc6cc7c(S(=O)(=O)O)cc(S(=O)(=O)O)cc7cc6S(=O)(=O)O)n5)ccc4S(=O)(=O)O)ccc31)C(=O)c1ccccc1-2 [No.15],(58.6)

# Same assay, conditions: Special Paper A (SA); water 2 min
row,SMILES,Water fastness (ΔE)
1,Cn1c(=O)cc2c3c(c(Nc4cc(Nc5nc(NCC(=O)O)nc(Nc6cc(C(=O)O)cc(C(=O)O)c6)n5)ccc4S(=O)(=O)O)ccc31)C(=O)c1ccccc1-2 [No.5],(2.4)
2,Cn1c(=O)cc2c3c(c(Nc4cc(Nc5nc(Cl)nc(Nc6cc7c(S(=O)(=O)O)cc(S(=O)(=O)O)cc7cc6S(=O)(=O)O)n5)ccc4S(=O)(=O)O)ccc31)C(=O)c1ccccc1-2 [No.15],(1.3)

# Same assay, conditions: Special Paper A (SA); water 2 min; JIS color fading grey scale
row,SMILES,Water fastness Grade
1,Cn1c(=O)cc2c3c(c(Nc4cc(Nc5nc(NCC(=O)O)nc(Nc6cc(C(=O)O)cc(C(=O)O)c6)n5)ccc4S(=O)(=O)O)ccc31)C(=O)c1ccccc1-2 [No.5],4
2,Cn1c(=O)cc2c3c(c(Nc4cc(Nc5nc(Cl)nc(Nc6cc7c(S(=O)(=O)O)cc(S(=O)(=O)O)cc7cc6S(=O)(=O)O)n5)ccc4S(=O)(=O)O)ccc31)C(=O)c1ccccc1-2 [No.15],4

# Same assay, conditions: Special Paper B (SB); water 2 min
row,SMILES,Water fastness (ΔE)
1,Cn1c(=O)cc2c3c(c(Nc4cc(Nc5nc(NCC(=O)O)nc(Nc6cc(C(=O)O)cc(C(=O)O)c6)n5)ccc4S(=O)(=O)O)ccc31)C(=O)c1ccccc1-2 [No.5],(4.5)
2,Cn1c(=O)cc2c3c(c(Nc4cc(Nc5nc(Cl)nc(Nc6cc7c(S(=O)(=O)O)cc(S(=O)(=O)O)cc7cc6S(=O)(=O)O)n5)ccc4S(=O)(=O)O)ccc31)C(=O)c1ccccc1-2 [No.15],(19.3)

# Same assay, conditions: Special Paper B (SB); water 2 min; JIS color fading grey scale
row,SMILES,Water fastness Grade
1,Cn1c(=O)cc2c3c(c(Nc4cc(Nc5nc(NCC(=O)O)nc(Nc6cc(C(=O)O)cc(C(=O)O)c6)n5)ccc4S(=O)(=O)O)ccc31)C(=O)c1ccccc1-2 [No.5],4
2,Cn1c(=O)cc2c3c(c(Nc4cc(Nc5nc(Cl)nc(Nc6cc7c(S(=O)(=O)O)cc(S(=O)(=O)O)cc7cc6S(=O)(=O)O)n5)ccc4S(=O)(=O)O)ccc31)C(=O)c1ccccc1-2 [No.15],2
